Publication PMC9501377, “New Diarylamine KV10.1 Inhibitors and Their Anticancer Potential” (Pharmaceutics, 2022)

Target: T1, KV10.1 (Eag1) (Homo sapiens, UniProt O95259)
T1 construct: expressed in transfected cells; host or cells: HEK-293 (stably transfected)
T1 sequence (O95259 1-962 isoform O95259-2): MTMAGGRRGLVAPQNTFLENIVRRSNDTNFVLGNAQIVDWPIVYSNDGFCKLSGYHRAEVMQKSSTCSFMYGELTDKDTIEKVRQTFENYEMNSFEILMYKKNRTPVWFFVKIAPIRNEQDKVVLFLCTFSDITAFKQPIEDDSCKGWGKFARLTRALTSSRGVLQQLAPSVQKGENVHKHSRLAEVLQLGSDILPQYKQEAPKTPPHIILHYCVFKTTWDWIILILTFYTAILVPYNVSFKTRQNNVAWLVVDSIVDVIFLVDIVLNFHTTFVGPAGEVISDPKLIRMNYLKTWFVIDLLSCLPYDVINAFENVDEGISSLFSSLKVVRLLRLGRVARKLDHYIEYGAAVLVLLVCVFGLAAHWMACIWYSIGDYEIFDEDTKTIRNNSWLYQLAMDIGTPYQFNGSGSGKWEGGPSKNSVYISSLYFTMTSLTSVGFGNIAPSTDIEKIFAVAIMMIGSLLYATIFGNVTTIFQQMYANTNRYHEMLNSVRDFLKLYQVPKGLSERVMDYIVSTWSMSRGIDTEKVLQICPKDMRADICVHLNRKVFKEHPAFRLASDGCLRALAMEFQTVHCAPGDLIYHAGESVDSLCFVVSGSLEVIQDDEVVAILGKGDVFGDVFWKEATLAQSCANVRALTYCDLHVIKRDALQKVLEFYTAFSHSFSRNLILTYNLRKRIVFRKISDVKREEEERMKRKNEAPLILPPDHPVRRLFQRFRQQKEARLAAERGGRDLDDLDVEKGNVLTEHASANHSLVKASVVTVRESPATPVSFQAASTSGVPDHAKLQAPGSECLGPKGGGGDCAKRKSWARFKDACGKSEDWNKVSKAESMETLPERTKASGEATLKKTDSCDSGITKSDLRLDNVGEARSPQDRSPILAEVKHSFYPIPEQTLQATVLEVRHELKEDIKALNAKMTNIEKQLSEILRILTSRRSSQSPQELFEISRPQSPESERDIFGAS
Assay: Whole-cell patch-clamp on stably transfected HEK-293 cells expressing KV10.1
Format: cell-based
Conditions: 10 μM, HEK-293 cells, patch-clamp, mean ± SEM
Experimental: For whole-cell patch-clamp measurements, stably transfected HEK-293 cells expressing KV10.1 [26, 27, 28] were grown in DMEM with 10% FCS and 300 µg/mL Zeocin on glass coverslips coated with fibronectin. All experiments were conducted at room temperature under perfusion by gravity with extracellular solution (160 mM NaCl, 2.5 mM KCl, 2 mM CaCl2, 1 mM MgCl2, 10 mM Hepes pH 7.4 with NaOH, 8 mM glucose). Pipettes were made from #1 glass capillaries (WPI) and had 1–3 MΩ resistance. The intracellular solution contained 100 mM KCl, 45 mM N-methyl-D-glucamine, 10 mM 1,2-bis(o-aminophenoxy)ethane-N,N,N′,N′-tetraacetic acid (BAPTA), 10 mM Hepes pH 7.35. Stimulation was applied and data were acquired with an EPC10 Plus amplifier (HEKA Elektronik) controlled with Patch Master software. Compounds were applied with an 8-channel fast solution exchanger (ALA). Compounds were prepared to a stock concentration of 10 mM in DMSO. The control solution contained 0.5% DMSO. Stimuli consisted of 500 ms depolarizations to +40 mV.
All electrophysiological data are presented as means ± SEM of n ≥ 3 independent experiments unless otherwise indicated. Oocyte data were analysed using pClamp Clampfit 10.4 (Molecular Devices, Downingtown, PA, USA) and OriginPro 9 (Originlab, Northampton, MA, USA) or GraphPad Prism 8 software (GraphPad Software, Inc., San Diego, CA, USA). Patch-clamp data analysis was performed using FitMaster (HEKA Electronics), IgorPro (Wavemetrics, Inc., Lake Oswego, OR, USA) and GraphPad Prism 9 (GraphPad Software, Inc., San Diego, CA, USA). The Dunnett test and one-way ANOVA were performed to calculate the significance of the induced inhibition compared to the control (p < 0.05).

Q: For `O=[N+]([O-])c1cc(C(F)(F)F)ccc1Nc1ccc(OCc2ccccc2)cc1` [Compound 14, N-(4-(Benzyloxy)phenyl)-2-nitro-4-(trifluoromethyl)aniline], which “% of Kv10.1 Inhibition at 10 μM (HEK-293 Cells)” value is on record?
A: Its value is “inactive”.

Q: “Methyl 2-((4-(2-hydroxy-3-morpholinopropoxy)phenyl)amino)benzoate [Compound 5e]” was tested. Which “% of Kv10.1 Inhibition at 10 μM (HEK-293 Cells)” value did it give?
A: The value was 12.6 ± 6.4%.

Same assay, conditions: HEK293; 1 μM, HEK-293 cells, patch-clamp, mean ± SEM

Q: With `CCN(CC)CCOc1c(Br)cc(Nc2ccc(C(F)(F)F)cc2[N+](=O)[O-])cc1Br` [Compound 17b, 3,5-Dibromo-4-(2-(diethylamino)ethoxy)-N-(2-nitro-4-(trifluoromethyl)phenyl)aniline] as the molecule, how does the inhibition at 1 µM read?
A: Its inhibition at 1 µM is 38.2 ± 1.4%.

Q: With `CN(C)CCOc1c(Cl)cc(Nc2ccc(C(F)(F)F)cc2[N+](=O)[O-])cc1Cl` [Compound 18c, 3,5-Dichloro-4-(2-(dimethylamino)ethoxy)-N-(2-nitro-4-(trifluoromethyl)phenyl)aniline] as the molecule, how does the inhibition at 1 µM read?
A: The inhibition at 1 µM was 28.4 ± 12.1%.

Q: `CCN(CC)CCOc1c(Cl)cc(Nc2ccc(C(F)(F)F)cc2[N+](=O)[O-])cc1Cl` [Compound 17c, 3,5-Dichloro-4-(2-(diethylamino)ethoxy)-N-(2-nitro-4-(trifluoromethyl)phenyl)aniline] was tested. Which inhibition at 1 µM did it give?
A: Its inhibition at 1 µM is 66.5 ± 5.5%.

Same assay, conditions: HEK293; 10 μM, HEK-293 cells, patch-clamp, mean ± SEM

Q: Which inhibition at 10 µM does the source give for `O=[N+]([O-])c1cc(C(F)(F)F)ccc1Nc1ccc(OCc2ccccc2)cc1` [Compound 14, N-(4-(Benzyloxy)phenyl)-2-nitro-4-(trifluoromethyl)aniline] here?
A: Its inhibition at 10 µM is 3.3 ± 1.7%.

Q: How did the inhibition at 10 µM turn out when `CN(C)CC(O)COc1ccc(NC(=O)c2ccc(C(F)(F)F)cc2[N+](=O)[O-])cc1` (centres unmarked) [Compound 6b, N-(4-(3-(Dimethylamino)-2-hydroxypropoxy)phenyl)-2-nitro-4-(trifluoromethyl)benzamide] was run?
A: Its inhibition at 10 µM is 1.7 ± 6%.

Q: `O=[N+]([O-])c1cc(C(F)(F)F)ccc1Oc1ccc(OCC(O)CN2CCOCC2)cc1` (centres unmarked) [Compound 5b, 1-Morpholino-3-(4-(2-nitro-4-(trifluoromethyl)phenoxy)phenoxy)propan-2-ol] was tested. Which inhibition at 10 µM did it give?
A: The inhibition at 10 µM was 2.9 ± 5.3%.

Q: Which inhibition at 10 µM does the source give for `O=C(O)c1ccccc1Nc1ccc(OCC(O)CN2CCOCC2)cc1` (centres unmarked) [Compound 10a, 2-((4-(2-Hydroxy-3-morpholinopropoxy)phenyl)amino)benzoic acid] here?
A: The inhibition at 10 µM was 5.8 ± 5.3%.

Q: With `O=[N+]([O-])c1ccc(Nc2ccc(OCC(O)CN3CCOCC3)cc2)c([N+](=O)[O-])c1` (centres unmarked) [Compound 5f, 1-(4-((2,4-Dinitrophenyl)amino)phenoxy)-3-morpholinopropan-2-ol] as the molecule, how does the inhibition at 10 µM read?
A: Its inhibition at 10 µM is 61.7 ± 9.1%.

Q: Which inhibition at 10 µM does the source give for `CNCC(O)COc1ccc(Nc2ccc(C(F)(F)F)cc2[N+](=O)[O-])cc1` (centres unmarked) [Compound 15, 1-(Methylamino)-3-(4-((2-nitro-4-(trifluoromethyl)phenyl)amino)phenoxy)propan-2-ol] here?
A: Its inhibition at 10 µM is 66.6 ± 4.3%.

Q: For `O=[N+]([O-])c1cc(C(F)(F)F)ccc1Nc1ccc(OCCN2CCOCC2)cc1` [Compound 13, N-(4-(2-Morpholinoethoxy)phenyl)-2-nitro-4-(trifluoromethyl)aniline], which inhibition at 10 µM is on record?
A: The inhibition at 10 µM was 62.4 ± 3.9%.

Q: `CN(C)CCOc1ccc(Nc2ccc(C(F)(F)F)cc2[N+](=O)[O-])cc1` [Compound 18a, N-(4-(2-(Dimethylamino)ethoxy)phenyl)-2-nitro-4-(trifluoromethyl)aniline] was tested. Which inhibition at 10 µM did it give?
A: The inhibition at 10 µM was 81.4 ± 5.6%.

Q: Which inhibition at 10 µM does the source give for `CN(C)CC(O)COc1ccc(Nc2ccc(C(F)(F)F)cc2C(=O)O)cc1` (centres unmarked) [Compound 10b, 2-((4-(3-(Dimethylamino)-2-hydroxypropoxy)phenyl)amino)-5-(trifluoromethyl)benzoic acid] here?
A: The inhibition at 10 µM was -2.1 ± 5.7%.

Q: `COC(=O)c1ccccc1Nc1ccc(OCC(O)CN2CCOCC2)cc1` (centres unmarked) [Compound 5d, Methyl 2-((4-(2-hydroxy-3-morpholinopropoxy)phenyl)amino)benzoate] was tested. Which inhibition at 10 µM did it give?
A: The inhibition at 10 µM was 2.7 ± 1.2%.

Q: With `COC(=O)c1cc(C(F)(F)F)ccc1Nc1ccc(OCC(O)CN(C)C)cc1` (centres unmarked) [Compound 6c, Methyl 2-((4-(3-(dimethylamino)-2-hydroxypropoxy)phenyl)amino)-5-(trifluoromethyl)benzoate] as the molecule, how does the inhibition at 10 µM read?
A: Its inhibition at 10 µM is 4.2 ± 5.5%.

Q: How did the inhibition at 10 µM turn out when `O=[N+]([O-])c1cc(C(F)(F)F)ccc1Nc1ccc(OCCN2CCCCC2)cc1` [Compound 20, 2-Nitro-N-(4-(2-(piperidin-1-yl)ethoxy)phenyl)-4-(trifluoromethyl)aniline] was run?
A: Its inhibition at 10 µM is 65 ± 6%.

Q: Which inhibition at 10 µM does the source give for `O=C(Nc1ccc(OCC(O)CN2CCOCC2)cc1)c1ccc(C(F)(F)F)cc1[N+](=O)[O-]` (centres unmarked) [Compound 5c, N-(4-(2-Hydroxy-3-morpholinopropoxy)phenyl)-2-nitro-4-(trifluoromethyl)benzamide] here?
A: The inhibition at 10 µM was 7.5 ± 3.5%.

Q: How did the inhibition at 10 µM turn out when `CN(C)CC(O)COc1ccc(Nc2ccc([N+](=O)[O-])cc2[N+](=O)[O-])cc1` (centres unmarked) [Compound 6d, 1-(Dimethylamino)-3-(4-((2,4-dinitrophenyl)amino)phenoxy)propan-2-ol] was run?
A: The inhibition at 10 µM was 61.9 ± 9%.

Q: With `COC(=O)c1ccccc1Oc1ccc(OCC(O)CN2CCOCC2)cc1` (centres unmarked) [Compound 5a, Methyl 2-(4-(2-hydroxy-3-morpholinopropoxy)phenoxy)benzoate] as the molecule, how does the inhibition at 10 µM read?
A: The inhibition at 10 µM was 4.1 ± 2.6%.

Q: `CN(C)CC(O)COc1ccc(Oc2ccc(C(F)(F)F)cc2[N+](=O)[O-])cc1` (centres unmarked) [Compound 6a, 1-(Dimethylamino)-3-(4-(2-nitro-4-(trifluoromethyl)phenoxy)phenoxy)propan-2-ol] was tested. Which inhibition at 10 µM did it give?
A: Its inhibition at 10 µM is 18.8 ± 4%.

Q: With `O=[N+]([O-])c1cc(C(F)(F)F)ccc1Nc1ccc(OCCN2CCCC2)cc1` [Compound 19, 2-Nitro-N-(4-(2-(pyrrolidin-1-yl)ethoxy)phenyl)-4-(trifluoromethyl)aniline] as the molecule, how does the inhibition at 10 µM read?
A: The inhibition at 10 µM was 68.4 ± 14.8%.

Q: Which inhibition at 10 µM does the source give for `O=[N+]([O-])c1cc(C(F)(F)F)ccc1Nc1ccc(OCCN2CCCCCC2)cc1` [Compound 21, N-(4-(2-(Azepan-1-yl)ethoxy)phenyl)-2-nitro-4-(trifluoromethyl)aniline] here?
A: Its inhibition at 10 µM is 71 ± 4.12%.

Same assay, conditions: HEK293; 50 μM, HEK-293 cells, patch-clamp, mean ± SEM

Q: With `O=C(Cc1ccc(Cl)c(Cl)c1)NC1CCN(CC(O)COc2ccc(Nc3ccc(C(F)(F)F)cc3[N+](=O)[O-])cc2)CC1` (centres unmarked) [Compound 16d, 2-(3,4-Dichlorophenyl)-N-(1-(2-hydroxy-3-(4-((2-nitro-4-(trifluoromethyl)phenyl)amino)phenoxy)propyl)piperidin-4-yl)acetamide] as the molecule, how does the inhibition at 50 µM read?
A: The inhibition at 50 µM was 21.8 ± 4.4%.

Same assay, conditions: whole-cell patch-clamp, dose–response fit

Q: With `CN(C)CCOc1ccc(Nc2ccc(C(F)(F)F)cc2[N+](=O)[O-])cc1` [Compound 18a, N-(4-(2-(Dimethylamino)ethoxy)phenyl)-2-nitro-4-(trifluoromethyl)aniline] as the molecule, how does the IC50 read?
A: The IC50 was 0.892 µM.

Target: hERG (Homo sapiens, UniProt Q12809)
Assay: Whole-cell patch-clamp, hERG inhibition
Format: cell-based
Design: expressed in transfected cells
Conditions: dose–response fit

Chain of hERG (Q12809 whole entry): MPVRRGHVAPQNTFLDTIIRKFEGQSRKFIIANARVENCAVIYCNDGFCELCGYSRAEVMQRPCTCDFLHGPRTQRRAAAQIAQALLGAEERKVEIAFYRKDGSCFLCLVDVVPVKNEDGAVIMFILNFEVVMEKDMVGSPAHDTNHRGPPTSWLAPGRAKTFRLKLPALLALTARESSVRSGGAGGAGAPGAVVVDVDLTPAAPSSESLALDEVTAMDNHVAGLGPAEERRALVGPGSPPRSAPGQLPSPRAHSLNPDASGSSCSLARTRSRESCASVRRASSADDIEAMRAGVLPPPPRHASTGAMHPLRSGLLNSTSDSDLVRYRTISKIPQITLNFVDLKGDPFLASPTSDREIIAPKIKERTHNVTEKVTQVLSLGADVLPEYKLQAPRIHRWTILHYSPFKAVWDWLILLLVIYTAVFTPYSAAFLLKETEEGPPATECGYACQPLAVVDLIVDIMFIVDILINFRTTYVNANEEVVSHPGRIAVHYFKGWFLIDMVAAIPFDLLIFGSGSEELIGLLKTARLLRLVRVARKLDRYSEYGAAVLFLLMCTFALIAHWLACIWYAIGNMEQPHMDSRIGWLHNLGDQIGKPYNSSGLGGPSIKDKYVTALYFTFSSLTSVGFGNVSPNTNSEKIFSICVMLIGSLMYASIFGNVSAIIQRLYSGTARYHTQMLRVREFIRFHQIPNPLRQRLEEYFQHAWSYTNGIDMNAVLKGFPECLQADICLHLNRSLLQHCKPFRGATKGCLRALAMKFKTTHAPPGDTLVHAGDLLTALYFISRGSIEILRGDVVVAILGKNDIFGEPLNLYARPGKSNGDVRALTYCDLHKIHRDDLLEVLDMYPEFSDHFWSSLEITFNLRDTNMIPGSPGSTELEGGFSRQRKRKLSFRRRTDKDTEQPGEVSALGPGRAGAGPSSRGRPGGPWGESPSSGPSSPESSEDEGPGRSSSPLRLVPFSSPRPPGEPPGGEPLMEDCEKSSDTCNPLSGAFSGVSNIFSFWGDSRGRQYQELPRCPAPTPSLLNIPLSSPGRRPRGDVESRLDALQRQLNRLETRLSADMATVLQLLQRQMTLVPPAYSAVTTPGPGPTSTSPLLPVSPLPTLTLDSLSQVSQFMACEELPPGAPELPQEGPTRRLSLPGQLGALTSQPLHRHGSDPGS

Q: `CN(C)CCOc1ccc(Nc2ccc(C(F)(F)F)cc2[N+](=O)[O-])cc1` [Compound 18a, N-(4-(2-(Dimethylamino)ethoxy)phenyl)-2-nitro-4-(trifluoromethyl)aniline] was tested. Which IC50 did it give?
A: Its IC50 is 0.177 µM.
